“Also recorded” adds a separate entry of the source.
Experiments:
Type in all cases: biochemical
Human recombinant 5-LO [1] = target: T1, Human recombinant 5-LO (Homo sapiens, UniProt P09917); assay: Redox absorbance assay (13(S)-HpODE absorbance at 234 nm, pseudo-peroxidase activity); settings: for Redox absorbance, Δabs: absorbance at 234 nm, change over 180 seconds, average ± SD of triplicate
T1 construct: purchased Cayman Chemical
T1 sequence (P09917 1-674): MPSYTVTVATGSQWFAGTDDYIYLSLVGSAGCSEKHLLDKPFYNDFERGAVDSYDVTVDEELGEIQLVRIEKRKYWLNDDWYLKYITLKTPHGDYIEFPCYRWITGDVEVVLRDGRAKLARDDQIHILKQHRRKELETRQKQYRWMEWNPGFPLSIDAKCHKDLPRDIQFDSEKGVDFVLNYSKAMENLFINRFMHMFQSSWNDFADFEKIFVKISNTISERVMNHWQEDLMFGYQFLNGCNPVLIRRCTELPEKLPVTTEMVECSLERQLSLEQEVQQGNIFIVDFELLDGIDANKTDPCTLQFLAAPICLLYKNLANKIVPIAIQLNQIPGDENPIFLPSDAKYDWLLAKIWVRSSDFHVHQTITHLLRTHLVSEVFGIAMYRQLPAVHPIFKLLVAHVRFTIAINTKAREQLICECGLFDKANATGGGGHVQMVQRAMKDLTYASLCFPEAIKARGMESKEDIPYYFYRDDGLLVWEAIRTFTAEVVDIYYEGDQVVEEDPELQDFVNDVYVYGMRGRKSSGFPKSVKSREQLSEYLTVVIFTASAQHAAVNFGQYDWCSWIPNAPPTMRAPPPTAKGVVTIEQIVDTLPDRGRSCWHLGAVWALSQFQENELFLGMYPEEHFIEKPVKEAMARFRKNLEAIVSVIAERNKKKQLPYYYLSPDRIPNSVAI
Description: (§1) Lipid peroxide is consumed when 5-LO is activated to the ferric iron form. The enzyme remains activated during the dioxygenation reaction cycle. If a redox inhibitor is present, it reduces the catalytic iron into the ferrous form and inhibits the enzyme reaction. Another lipid peroxide must be consumed to re-activate 5-LO to the ferric form. As a result, reductions in the amount of lipid peroxide in the reaction mixture signify redox activity. […] The absorbance-based method measures the amount of peroxide by its absorbance at 234 nm, and the fluorescence-based method measures it by analyzing its reaction with H2DCFDA.
The redox absorbance assay was carried out as described by Zweifel, et al.. Specifically, 10 µl of 1 mM inhibitor solution was mixed with 490 µl of 20 µM 13-HpODE solution. After 3 minutes of incubation at room temperature, the solution was transferred to a cuvette. The reaction started when 500 µl of the 20 unit/ml enzyme solution was added to the peroxide-inhibitor mixture in the cuvette. The absorbance of 13(S)-HpODE at 234 nm was measured immediately after mixing, using a SpectraMax M5 spectrophotometer. Data points were collected for 3 minutes. The reaction buffer consisted of 50 mM potassium phosphate buffer (pH 7.6), 0.1 mM EDTA, 100 µM ATP, and 0.3 mM CaCl2.
The accuracy and efficacy of the redox absorbance assay were determined by testing the selected compounds. The absorbance of 13(S)-HpODE was measured at 234 nm, and the values were recorded every second for 3 minutes.
In theory, because the extinction coefficient of 13(S)-HpODE at 234 nm is 23,000 M^−1 cm^−1, 10 µM 13(S)-HpODE contributes a maximum of 0.23 in absorbance.

Human recombinant 5-LO [2] = target: T1, Human recombinant 5-LO; assay: Redox fluorescence assay (remaining 13(S)-HpODE by H2DCFDA fluorescence after pseudo-peroxidase reaction)
Description: as §1
H2DCF-DA (60 µM) was pre-cleaved by 5-LO crude lysate in the reaction buffer (50 mM Tris, pH 7.5, 2 mM ethylenediaminetetraacetic acid [EDTA], 2 mM CaCl2, and 10 µM adenosine triphosphate [ATP]) for more than 10 minutes before the main reaction, as previously reported. In a 384-well plate, 10 µl of 450 mU/µl enzyme solution was distributed and mixed with 10 µl of inhibitor solution with various concentrations. 13(S)-HpODE (10 µM; 20 µl) was added to each well to start the reaction. After 3 minutes, pre-cleaved H2DCF-DA dye (20 µl) was added and incubated for more than 10 minutes. The fluorescence signal was measured using a fluorometer at excitation and emission wavelengths of 485 and 530 nm, respectively. All steps were carried out at room temperature.
The highest and lowest compound concentrations in the serially diluted set were 100 µM and 1.69 nM, respectively. […] The final DMSO amount in the reaction mixture was kept at 1% throughout the experiments. […] Four wells without any inhibitors represented the “100% peroxide” control wells, and the average fluorescence values in the control wells were used for normalization of fluorescence data. The concentration points were duplicated in each test and the concentration-dependent fluorescence data were fitted with three-parameter logistic regression in Prism using the top and bottom constraints of 100 and 0, respectively.

Human recombinant 5-LO [3] = target: T1, Human recombinant 5-LO; assay: Redox absorbance assay (13(S)-HpODE absorbance at 234 nm, pseudo-peroxidase activity)
[4] = 10 µM inhibitor, 234 nm, 3 min kinetic curve, Figure 2

| Redox absorbance, Δabs (Human recombinant 5-LO [1]; 10 µM inhibitor) | EC50 (Human recombinant 5-LO [2]) [µM] | redox activity in absorbance assay carried out in the fluorescence assay buffer (Human recombinant 5-LO [3]; buffer of the redox fluorescence assay, Figure 4-C) | absorbance pattern over time (redox / non-redox pattern) (Human recombinant 5-LO [1]; [4]) | redox activity less than that of the stronger redox inhibitors (Human recombinant 5-LO [2]; fluorescence assay, relative to stronger redox inhibitors) [%] | absorbance pattern in substrate-depleted conditions (Human recombinant 5-LO [3]; 80 minutes after the start of the reaction, 234 nm, Figure 4) | reduction in absorbance (Human recombinant 5-LO [1]; [4]) | share of the decrease in absorbance in the first 20 seconds (Human recombinant 5-LO [1]; first 20 seconds of the reaction, Figure 2) | Compound |
| --- | --- | --- | --- | --- | --- | --- | --- | --- |
| 0.014±0.011 | > 100 |  |  |  |  |  |  | COc1ccc(/C=C2\SC(c3ccc(Cl)cc3)=NC2=O)cc1 [CAY10649, (Z)-2-(4-chlorophenyl)-5-(4-methoxybenzylidene)thiazol-4(5H)-one] |
| 0.005±0.003 |  |  | no changes in absorbance over time | 60 |  |  |  | O=C(O)C=Cc1ccc(O)c(O)c1 [Caffeic acid, 3,4-dihydroxy cinnamic acid] |
| 0.009±0.007 |  |  | increases in the absorbance assay |  |  |  |  | CC(Cc1ccc(O)c(O)c1)C(C)Cc1ccc(O)c(O)c1 (centres unmarked) [NDGA, 4,4′-(2,3-dimethyl-1,4-butanediyl)bis-1,2-benzenediol] |
| 0.015±0.005 | > 100 |  |  |  |  |  |  | Cn1nccc1-c1ccc(Sc2cccc(C3(C(N)=O)CCOCC3)c2)cc1 [PF4191834] |
| 0.008±0.005 | 77.2 ± 35.1 |  |  |  |  |  |  | CCCCCCC(Sc1nc(Cl)cc(Nc2cccc(C)c2C)n1)C(=O)O (centres unmarked) [YS121, 2-[[4-chloro-6-[(2,3-dimethylphenyl)amino]-2-pyrimidinyl]thio]-octanoic acid] |
| −0.025±0.018 |  |  | clear redox pattern |  | increased slowly over time | 0.042 | about 50% | CC(c1cc2ccccc2s1)N(O)C(N)=O (centres unmarked) [Zileuton, N-[1-benzo(b)thien-2-ylethyl]-N-hydroxy-urea] |

| Compound | Redox absorbance, Δabs (Human recombinant 5-LO [1]; 10 µM inhibitor) | EC50 (Human recombinant 5-LO [2]) [µM] | redox activity in absorbance assay carried out in the fluorescence assay buffer (Human recombinant 5-LO [3]; buffer of the redox fluorescence assay, Figure 4-C) | absorbance pattern over time (redox / non-redox pattern) (Human recombinant 5-LO [1]; [4]) | redox activity less than that of the stronger redox inhibitors (Human recombinant 5-LO [2]; fluorescence assay, relative to stronger redox inhibitors) [%] | absorbance pattern in substrate-depleted conditions (Human recombinant 5-LO [3]; 80 minutes after the start of the reaction, 234 nm, Figure 4) | reduction in absorbance (Human recombinant 5-LO [1]; [4]) | share of the decrease in absorbance in the first 20 seconds (Human recombinant 5-LO [1]; first 20 seconds of the reaction, Figure 2) |
| --- | --- | --- | --- | --- | --- | --- | --- | --- |
| N#CC(=Cc1ccc(O)c(O)c1)C(=O)OCC=Cc1ccccc1 [CDC, cinnamyl 3,4-dihydroxy-alpha-cyanocinnamate] | 0.015±0.005 | 0.13 ± 0.17 | redox activity was not detected | perfect non-redox pattern; also recorded: increases in the absorbance assay |  |  |  |  |

— paper PMC3912022, “A Fluorescence-Based Assay for Measuring the Redox Potential of 5-Lipoxygenase Inhibitors” (PLoS ONE, 2014)
